Test: xn = mol fraction of the nth substance listed

CCC(=O)O + O
viscosity [mPa·s]
Settings | x1 = 0.0263 | x1 = 0.0944 | x1 = 0.196 | x1 = 0.362 | x1 = 0.686
293.15 K, 101.33 kPa | 1.322 | 1.977 | 2.601 | – | –
298.15 K, 101 kPa | 1.443 | 2.821 | 3.483 | 3.351 | 2.816
308.15 K, 101 kPa | 1.08 | 1.945 | 2.418 | 2.393 | 2.082
313.15 K, 101.33 kPa | 0.858 | 1.188 | 1.552 | – | –
318.15 K, 101 kPa | 0.856 | 1.434 | 1.789 | 1.789 | 1.592

CNN + O
293.15 K, 101.3 kPa
Settings | viscosity [mPa·s]
x1 = 0.0514 | 1.53
x1 = 0.1003 | 2.35
x1 = 0.1615 | 3.54
x1 = 0.2017 | 4.51
x1 = 0.2563 | 5.58
x1 = 0.303 | 6
x1 = 0.3482 | 5.9
x1 = 0.4048 | 5.5
x1 = 0.4408 | 4.91
x1 = 0.5008 | 4.07
x1 = 0.6034 | 2.98
x1 = 0.6873 | 2.16
x1 = 0.8036 | 1.56
x1 = 0.8917 | 1.22

NN + O
Settings | viscosity [mPa·s]
293.15 K, 101.3 kPa, x1 = 0.0526 | 1.11
293.15 K, 101.3 kPa, x1 = 0.1045 | 1.26
293.15 K, 101.3 kPa, x1 = 0.1502 | 1.4
293.15 K, 101.3 kPa, x1 = 0.2047 | 1.57
293.15 K, 101.3 kPa, x1 = 0.3013 | 1.8
293.15 K, 101.3 kPa, x1 = 0.3512 | 1.88
293.15 K, 101.3 kPa, x1 = 0.3967 | 1.96
293.15 K, 101.3 kPa, x1 = 0.4526 | 1.92
293.15 K, 101.3 kPa, x1 = 0.4938 | 1.89
293.15 K, 101.3 kPa, x1 = 0.5997 | 1.71
293.15 K, 101.3 kPa, x1 = 0.7032 | 1.51
293.15 K, 101.3 kPa, x1 = 0.8022 | 1.28
293.15 K, 101.3 kPa, x1 = 0.8961 | 1.11
303 K, 101 kPa, x1 = 0.1 | 1.009
303 K, 101 kPa, x1 = 0.2 | 1.181
303 K, 101 kPa, x1 = 0.3 | 1.357
303 K, 101 kPa, x1 = 0.4 | 1.364
303 K, 101 kPa, x1 = 0.55 | 1.43
303 K, 101 kPa, x1 = 0.6 | 1.41
303 K, 101 kPa, x1 = 0.7 | 1.34
303 K, 101 kPa, x1 = 0.8 | 1.21
303 K, 101 kPa, x1 = 0.9 | 1.02
313 K, 101 kPa, x1 = 0.1 | 0.869
313 K, 101 kPa, x1 = 0.2 | 0.989
313 K, 101 kPa, x1 = 0.3 | 1.138
313 K, 101 kPa, x1 = 0.4 | 1.148
313 K, 101 kPa, x1 = 0.55 | 1.19
313 K, 101 kPa, x1 = 0.6 | 1.17
313 K, 101 kPa, x1 = 0.7 | 1.1
313 K, 101 kPa, x1 = 0.8 | 0.98
313 K, 101 kPa, x1 = 0.9 | 0.83

Source: the CheMixHub viscosity set
